For one series, the system named is NCI-60 cell line panel. Nature of the series: NCI-60 single-dose assay, whole panel. The conditions noted are these: summary over the panel. Format: cell-based, human. The text has this:
We first evaluated the cytotoxic activity of tricyclic-pyrrole carboxamides 1–20 using the NCI-60 cell line panel, representing nine different human cancers: leukemia, melanoma, and cancers of the lung, colon, central nervous system (CNS), ovary, kidney, prostate, and breast (the one-dose graph for compounds 1–20 is reported in Supplementary Materials, Figures S43–S62). Compounds 1, 5, 10, 11, 17, and 20 satisfied pre-determined threshold inhibition criteria in a minimum number of cell lines; therefore, they were also tested in the full five-dose assay (Figures S63–S68 in the Supplementary Materials).

The subject of another series is SR (leukemia cell line). The series is described as follows: NCI-60 single-dose assay. Conditions: for inhibition at 10 µM: Homo sapiens, read-out: growth inhibition (GI%) and cytotoxicity (negative values). The series is classed as cell-based, human. The gist of the method:
(§1)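 Cytotoxicity was screened at a single dose across the NCI-60 human tumour cell panel, which covers leukemia, melanoma and lung, colon, CNS, ovarian, renal, prostate and breast cancers.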

The test system of series [1] is MOLT-4 (leukemia cell line). The series is described as follows: NCI-60 single-dose assay. The conditions noted are these: Homo sapiens, MOLT-4, read-out: growth inhibition (GI%) and cytotoxicity (negative values). The series is classed as cell-based, human. The gist of the method:
as §1

Series [2] has as its system HCC-2998 (colon cancer cell line). The series is described as follows: NCI-60 single-dose assay. Conditions: for inhibition at 10 µM: Homo sapiens, HCC 2998, read-out: growth inhibition (GI%) and cytotoxicity (negative values); for growth inhibition (GI%) and cytotoxicity (negative values): human. The series is classed as cell-based, human. An outline of the steps: as §1

For series [3], the system named is UACC-62 (melanoma cell line). Nature of the series: NCI-60 single-dose assay. The series is classed as cell-based, human. The conditions noted are these: Homo sapiens, UACC-62, read-out: growth inhibition (GI%) and cytotoxicity (negative values). The gist of the method:
as §1

The subject of series [4] is KM12 (colon cancer cell line). The series is described as follows: NCI-60 single-dose assay. Conditions: Homo sapiens, KM12, read-out: growth inhibition (GI%) and cytotoxicity (negative values). The series is classed as cell-based, human. The gist of the method: as §1
Series [5] has as its system UACC-257 (melanoma cell line). The series is described as follows: NCI-60 single-dose assay. The series is classed as cell-based, human. The conditions noted are these: Homo sapiens, UACC-257, read-out: growth inhibition (GI%) and cytotoxicity (negative values). The gist of the method:
as §1

For series [6], the system named is ZIKV, strain Brazil/2016/INMI1. Nature of the series: ZIKV viral yield reduction assay on Huh-7 cells. The series is classed as cell-based, Zika virus. Conditions: for EC50: Zika virus. How it is done:
We developed a protocol to screen the potential antiviral activity of compounds 1–20 against ZIKV (strain Brazil) on Huh-7 cells, against an H1N1 IAV strain (PR/8/1934) on MDCK cells, and against SARS-CoV-2 (strain Milano) on Vero-TMPRSS. Each compound was tested in duplicate at concentrations of 50 μM, 5 μM, and 0.5 μM. Treatment was applied immediately after infection, and at 24–48 h post-infection, supernatants were collected to assess viral yield, determined as PFU/mL for ZIKV and SARS-CoV-2 or as TCID50/mL for IAV. The test allowed us to evaluate both the antiviral action and the cytotoxicity of each compound, comparing them with reference compounds, such as sofosbuvir for ZIKV and EIDD-1931 for IAV and SARS-CoV-2 (Supplementary Materials, Figures S87–S89).
Viral yield reduction assays for ZIKV and SARS-CoV-2 were performed as previously described by Plicanti. Briefly, 1 × 10^4 Huh-7 cells/well and 1.2 × 10^4 VERO TMPRSS cells/well were infected with ZIKV (MOI 1) or SARS-CoV-2 (MOI 0.05) in a primary 96-well plate for 2 h at 37 °C, 5% CO2. […] Supernatants were collected after 48 h (Huh-7) or 24 h (VERO TMPRSS), diluted 3-fold, and added onto VERO E6 or VERO TMPRSS monolayers, respectively. After 2 h at 37 °C, the inoculum was replaced with 0.75% carboxymethyl cellulose (Merck®, Darmstadt, Germany) in DMEM 2% FBS. After 48–72 h, cells were then fixed with 4% buffered formalin solution (Merck®, Darmstadt, Germany) and stained with 1% crystal violet (Merck®, Darmstadt, Germany). Titres and percentage of inhibition were calculated as follows:
PFU/mL = number of plaques*3^n/vol infection, where n is the dilution where plaques were counted:% inhibition = 100 × (1 − Titre-compound/Titre-untreated control) where Titre-compound and Titre-untreated control are the titres (PFU/mL) obtained on cells treated with compound or DMSO, respectively.
SI was obtained by dividing CC50 by EC50 for each drug/virus/cell line. Compounds with SI values ≥ 10 were active in vitro.

In series [7] the test system is IAV strain A/PR/8/34 (H1N1). Nature of the series: microbe, parasite or virus in culture. Conditions: Influenza A virus, MDCK, read-out: IAV/MDCK EC50.
Setting [8] is: Huh-7, read-out: ZIKV/Huh‐7 EC50.
The mark [9] stands for this setting: preliminary screening (50, 5, 0.5 μM), Huh-7, read-out: ZIKV/Huh‐7 EC50.

Where two headings read alike, the source gives them in different places.

By inhibition is commonly meant the share of the control response that was lost under treatment.

Regarding `COc1ccccc1N1CCN(CCNC(=O)c2[nH]c3c(c2Cl)CCCc2ccccc2-3)CC1` [Compound 5], in the series on NCI-60 cell line panel, the “growth inhibition (GI%) reached against cancer cell lines of the NCI-60 panel” value (“growth inhibition (GI%) reached” for short) is greater than 90%. The inhibition at 10 µM was 90.1% in the series with SR (leukemia cell line); 93% in series [1]; less than 60% in series [2]; less than 60% in [3]; 67.7% in [4]; less than 60% in series [5]. In addition, the EC50 in series [6] (setting [8]) was 3.82 µM.

For `O=C(NCCN1CCN(c2ccccc2)CC1)c1c(Cl)[nH]c2c1CCCc1ccccc1-2` [Compound 12, 2-Chloro-N-(2-(4-phenylpiperazin-1-yl)ethyl)-1,4,5,6-tetrahydrobenzo[6,7]cyclohepta[1,2-b]pyrrole-3-carboxamide], the EC50 in series [7] came to 3.49 µM; in series [6] (setting [9]), 1.54 µM. Also, the inhibition at 10 µM is 78.7% in the series with SR (leukemia cell line); less than 60% in series [1]; less than 60% in series [2]; less than 60% in [3]; less than 60% in series [4]; less than 60% in [5].

On to `O=C(NCCN1CCN(c2ccc(Cl)cc2)CC1)c1c(Cl)[nH]c2c1CCCc1ccccc1-2` [Compound 13], for which the EC50 in [7] is 41.3 µM; in [6] (Huh-7, 48 h), 3.08 µM; in series [6] (setting [8]) it was 1.3 µM. For the same compound, the inhibition at 10 µM in the series with SR (leukemia cell line) was 70.7%; in [1], 61.7%; in series [2], less than 60%; in series [3] it was less than 60%; in series [4], less than 60%; in series [5], less than 60%. For the same compound, the “selectivity index (SI)” value in [6] (ZIKV, Huh-7 cells, CC50/EC50) was found to be 20.20.

Turning to `O=C(NCCN1CCN(c2ccccc2Cl)CC1)c1c(Cl)[nH]c2c1CCCc1ccccc1-2` [Compound 14], the inhibition at 10 µM (in the series on SR (leukemia cell line); in [1]; in series [2]; in [3]; in series [4]; in series [5]) was less than 60% throughout. Also, the EC50 in series [6] (setting [9]) came to 4.74 µM.

Consider `COc1ccccc1N1CCN(CCNC(=O)c2c(Cl)[nH]c3c2CCCc2ccccc2-3)CC1` [Compound 15], for which the EC50 in series [7] was 17.7 µM; in [6] (setting [8]), 4.74 µM. Besides, the inhibition at 10 µM in the series with SR (leukemia cell line) was 95.5%; in [1] it was 76.5%; in [3] it was less than 60%; in [4], less than 60%; in series [5], 67%. Moreover, in series [2], the “growth inhibition (GI%) and cytotoxicity (negative values)” value was −18.77%.

In the case of `CCOc1ccccc1N1CCN(CCNC(=O)c2c(Cl)[nH]c3c2CCCc2ccccc2-3)CC1` [Compound 17], the EC50 in [7] is 34.9 µM; in [6] (setting [9]), 4.46 µM. Further, in the series with NCI-60 cell line panel, the “growth inhibition (GI%) reached” value is on record as greater than 90%. Besides, the “growth inhibition (GI%) and cytotoxicity (negative values)” value in the series with SR (leukemia cell line) (human) is recorded as −5.19%; in [2], −35.63%. In addition, the inhibition at 10 µM in series [1] is 95.5%; in series [3], less than 60%; in [4], less than 60%; in [5], 72%.

`N#Cc1ccccc1N1CCN(CCNC(=O)c2c(Cl)[nH]c3c2CCCc2ccccc2-3)CC1` [Compound 18, 2-Chloro-N-(2-(4-(2-cyanophenyl)piperazin-1-yl)ethyl)-1,4,5,6-tetrahydrobenzo[6,7]cyclohepta[1,2-b]pyrrole-3-carboxamide]: the EC50 was determined as 49.4 µM in series [7] and 4.11 µM in series [6] (setting [9]). Besides, the “growth inhibition (GI%) reached” value in the series on NCI-60 cell line panel was greater than 90%. For the same compound, the inhibition at 10 µM is 74.2% in the series with SR (leukemia cell line); 81.8% in series [1]; less than 60% in series [2]; less than 60% in series [3]; less than 60% in series [4]; less than 60% in series [5].

For the origin of these results see paper PMC12566046, “Arylpiperazinyl-Benzocycloheptapyrrole-Carboxamides Endowed with Dual Anticancer and Antiviral Activities” (Molecules, 2025).
